Test results published in US20080318949A1, “Pyrazolopyrimidinone Derivatives, Their Preparation And Their Use” (Topharman Shanghai Co., Ltd, priority 2005, published 2008).

What was measured:
[1] = system: rat corpora cavernosa; assay: Pharmacodynamic test: intracavernous pressure on electric stimulation of the cavernous nerve; type: in vivo; settings: anesthetized male SD rats, 5 mg/kg orally, ratio of ICP to MBp
Protocol: The test was carried out based on the methods reported (International Journal of Impotence Research 2002, 14, 251 and The Journal of Urology 1992, 147, 1124). After fasted for 12 hours, 4 male SD rats were randomized into each group. After anesthetizing the rats with sodium pentobarbital (50 mg/kg, i.p.), the penile skin was incised and the prepuce was degloved to expose completely the corpora cavernosa (CC). A needle linked to an electrophysiology instrument was inserted into the CC on the right side in order to measure the intracavernous pressure (ICP). The right carotid artery was cannulated in a similar manner to the polyethylene tube in order to monitor the mean blood pressure (MBp) continuously. […] Electric stimulation was performed at 2 Hz, for 60 s with a pulse duration of 5 ms and 3V using a stimulator. The compounds were administrated orally (5 mg/kg). The change of the ICP and MBp were monitored continuously before and after the administration. The effect of the compounds on the erection induced by electric stimulation was evaluated by the ratio of ICP to MBp. The parameter (ICP/MBp) was used to estimate the influence of the compounds to the rat corpora cavernosa. […] The statistical significance of the differences between groups was calculated using Duncan's multiple comparison.

[2] = target: T1, PDE5 from human platelets (Homo sapiens, UniProt O76074); assay: PDE5 inhibitory activity test (scintillation proximity assay); type: biochemical
T1 construct: from tissue; host or cells: human platelets
From the text: (§1) The PDE5 and PDE3 were isolated form human platelets, while the PDE6 was isolated form bovine retinas. The enzyme inhibitory activity test conducted immediately after the enzymes had been isolated, using a scintillation proximity assay for the direct detection of AMP/GMP by the TRKQ7100 and TRKQ7090 kit. In summary, the effect of PDE inhibitors was investigated by assaying a fixed amount of enzyme in the presence of varying inhibitor concentrations and low substrate. The final assay volume was made up to 100 μl with 10 μl assay buffer (50 mM Tris/HCl PH 7.5, 8.3 mM MgCl2, 1.7 mM EGTA), and water. Reactions were initiated with enzyme, incubate for 30 minutes at 30° C. and terminated with 50 μl yttrium silicate SPA beads suspension containing zinc sulphate. Shook for 20 minutes and settled for 30 minutes in the dark, then counted on a BECKMAN LS6500 MULTI-PURPOSE SCINTILLATION COUNTER. The IC50 value for the compounds according the present invention was calculated according the counts.
According to the above-mentioned method, the inhibitory activities of some compounds of formula IA and IB according to the invention against PDE5 from human platelets were determined.

[3] = system: male KM mouse; assay: Acute oral toxicity test; type: in vivo; settings: single oral dose of 3 g/kg, 10 or 11 mice per group
Protocol: In this test male KM mouse weighting 18-22 g were used, and 10 or 11 mouse were assigned randomly to each group. […] The animals were fasted for 12 hours before the administration.

[4] = target: T2, PDE6 from bovine retina (Bos taurus, UniProt P11541+P23439); assay: PDE6 inhibitory activity test (scintillation proximity assay); type: biochemical; settings: for IC50: PDE6 from bovine retina; for PDE6 IC50/PDE5 IC50: selectivity of PDE5 versus PDE6
T2 construct: the PDE6 was isolated form bovine retinas; from tissue; host or cells: bovine retina
T2 sequence (P11541 2-856 limits assumed): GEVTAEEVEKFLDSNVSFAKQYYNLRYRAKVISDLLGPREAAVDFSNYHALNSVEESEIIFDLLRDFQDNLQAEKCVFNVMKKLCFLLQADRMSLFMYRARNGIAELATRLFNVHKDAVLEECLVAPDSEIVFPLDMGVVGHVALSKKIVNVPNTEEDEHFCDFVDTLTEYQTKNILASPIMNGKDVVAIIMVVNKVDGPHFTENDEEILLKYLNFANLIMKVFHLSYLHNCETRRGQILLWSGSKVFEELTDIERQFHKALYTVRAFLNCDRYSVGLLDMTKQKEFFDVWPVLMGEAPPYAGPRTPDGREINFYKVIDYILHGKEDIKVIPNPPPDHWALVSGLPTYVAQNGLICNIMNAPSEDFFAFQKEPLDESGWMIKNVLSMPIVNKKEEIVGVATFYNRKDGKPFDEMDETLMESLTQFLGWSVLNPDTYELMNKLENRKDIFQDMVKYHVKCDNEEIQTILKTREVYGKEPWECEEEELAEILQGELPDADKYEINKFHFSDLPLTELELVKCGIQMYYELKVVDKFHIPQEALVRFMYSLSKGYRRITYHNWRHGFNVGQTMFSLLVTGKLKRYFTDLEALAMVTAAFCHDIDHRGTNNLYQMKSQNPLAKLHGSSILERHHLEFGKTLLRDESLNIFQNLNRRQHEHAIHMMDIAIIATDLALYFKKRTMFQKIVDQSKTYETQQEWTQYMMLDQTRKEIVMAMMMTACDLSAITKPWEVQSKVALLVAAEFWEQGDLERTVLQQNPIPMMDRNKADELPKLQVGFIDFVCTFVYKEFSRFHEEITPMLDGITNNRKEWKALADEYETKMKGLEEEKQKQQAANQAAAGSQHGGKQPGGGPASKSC
T2 sequence (P23439 2-850 limits assumed): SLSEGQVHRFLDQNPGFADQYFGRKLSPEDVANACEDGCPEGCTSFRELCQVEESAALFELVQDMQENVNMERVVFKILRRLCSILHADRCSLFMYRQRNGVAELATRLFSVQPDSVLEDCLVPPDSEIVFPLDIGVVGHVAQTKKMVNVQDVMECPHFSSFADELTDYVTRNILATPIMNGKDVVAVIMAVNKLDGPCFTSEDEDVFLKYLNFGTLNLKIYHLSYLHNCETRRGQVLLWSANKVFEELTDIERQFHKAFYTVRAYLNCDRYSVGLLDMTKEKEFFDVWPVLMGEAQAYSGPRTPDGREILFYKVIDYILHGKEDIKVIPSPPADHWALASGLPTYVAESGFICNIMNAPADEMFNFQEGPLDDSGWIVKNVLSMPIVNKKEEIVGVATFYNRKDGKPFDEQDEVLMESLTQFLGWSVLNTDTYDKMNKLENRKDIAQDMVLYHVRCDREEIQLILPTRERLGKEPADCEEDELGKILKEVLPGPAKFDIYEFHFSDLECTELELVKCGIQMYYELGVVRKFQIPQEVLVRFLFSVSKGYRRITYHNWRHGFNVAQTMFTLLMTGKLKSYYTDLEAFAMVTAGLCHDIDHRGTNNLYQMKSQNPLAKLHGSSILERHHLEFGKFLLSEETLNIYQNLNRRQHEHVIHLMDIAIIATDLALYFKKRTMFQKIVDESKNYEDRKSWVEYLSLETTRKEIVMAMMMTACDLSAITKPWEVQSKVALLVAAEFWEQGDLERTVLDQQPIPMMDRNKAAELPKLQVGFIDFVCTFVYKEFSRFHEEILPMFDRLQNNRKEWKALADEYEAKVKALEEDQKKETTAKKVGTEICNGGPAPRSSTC
From the text: as §1

Row | IC50 [4] [nM] | PDE6 IC50/PDE5 IC50 [4] | IC50 ([2]; PDE5 in the PDE6 selectivity table) [nM] | Compound | ICP/BP [1] | IC50 ([2]; PDE5 from human platelets) [nM] | Number of death [3] | mortality rate [3] [%]
1 |  |  |  | CCCOc1ccc(S(=O)(=O)N(CCCO)CCCOC)cc1-c1nc2c(CCC)nn(C)c2c(=O)[nH]1 [Example 99, 1-methyl-5-{2-propoxy-5-[[1-(3-methoxypropyl)-1-(3-hydroxypropyl)]amidosulfonyl]phenyl}-3-n-propyl-1,6-dihydro-7H-pyrazolo[4,3-d]pyrimidin-7-one] | 56.2 ± 9.3 | 4.03 | 1 | 10
2 | 93.6 | 279 |  | CCCc1nn(C)c2c(=O)[nH]c(-c3cc(S(=O)(=O)N(CCN4CCOCC4)Cc4ccccc4)ccc3OCC)nc12 [Example 25, 1-methyl-5-{2-ethoxy-5-[[1-benzyl-1-(2-morpholin-1-yl)ethyl]amidosulfonyl]phenyl}-3-n-propyl-1,6-dihydro-7H-pyrazolol[4,3-d]pyrimidin-7-one] |  | 0.335 |  | 
3 | 56.5 | 425 |  | CCCOc1ccc(S(=O)(=O)N(CCO)CCO)cc1-c1nc2c(CCC)nn(C)c2c(=O)[nH]1 [Example 2, 1-methyl-5-{2-propyloxy-5-[bis(2-hydroxyethyl)amidosulfonyl]phenyl}-3-n-propyl-1,6-dihydro-7H-pyrazolo[4,3-d]pyrimidin-7-one] |  | 0.133 |  | 
4 |  |  |  | 1-methyl-5-{2-propoxy-5-[[1-ethyl-1-(3-morpholin-1-yl)propyl]amidosulfonyl]phenyl}-3-n-propyl-1,6-dihydro-7H-pyrazolo[4,3-d]pyrimidin-7-one [Example 112] |  | 12.1 | 2 | 20
5 | 5.71 | 65.6 |  | CCCOc1ccc(S(=O)(=O)N(CCN2CCOCC2)Cc2ccccc2)cc1-c1nc2c(CCC)nn(C)c2c(=O)[nH]1 [Example 24, 1-methyl-5-{2-propoxy-5-[[1-benzyl-1-(2-morpholin-1-yl)ethyl]amidosulfonyl]phenyl}-3-n-propyl-1,6-dihydro-7H-pyrazolo[4,3-d]pyrimidin-7-one] |  | 0.087 |  | 
6 |  |  |  | CCCOc1ccc(S(=O)(=O)N(C)CCN(C)C)cc1-c1cc2c(CCC)nn(C)c2c(=O)[nH]1 [Example 75, 1-methyl-5-{2-propoxy-5-[[1-methyl-1-(2-dimethylamino)]amidosulfonyl]phenyl}-3-n-propyl-1,6-dihydro-7H-pyrazolo[4,3-d]pyrimidin-7-one] | 74.2 ± 7.8 |  |  | 
7 |  |  |  | CCCc1nn(C)c2c(=O)[nH]c(-c3cc(S(=O)(=O)N4CCN(C)CC4)ccc3OCC)nc12 [sildenafil, Sildenafil, reference compound] | 80.1 ± 5.1 |  | 6 | 60
8 | 131 | 131 |  | CCCc1nn(C)c2c(=O)[nH]c(-c3cc(S(=O)(=O)N(CCOC(=O)c4cccnc4)CCOC(=O)c4cccnc4)ccc3OCC)nc12 [Example 5, 1-methyl-5-{2-ethoxy-5-[bis(2-nicotinoyloxyethyl)amidosulfonyl]phenyl}-3-n-propyl-1,6-dihydro-7H-pyrazolo[4,3-d]pyrimidin-7-one] |  | 1.08 |  | 
9 |  |  |  | CCCOc1ccc(S(=O)(=O)N(C)CCN2CCCCC2)cc1-c1nc2c(CCC)nn(C)c2c(=O)[nH]1 [Example 78, 1-methyl-5-{2-propoxy-5-[[1-methyl-1-(2-piperidin-1-yl)ethyl]amidosulfonyl]phenyl}-3-n-propyl-1,6-dihydro-7H-pyrazolo[4,3-d]pyrimidin-7-one] | 71.6 ± 8.3 | 8.72 |  | 
10 |  |  |  | 1-methyl-5-{2-propoxy-5-[bis(3-methoxypropyl)amidosulfonyl]phenyl}-3-n-propyl-1,6-dihydro-7H-pyrazolo[4,3-d]pyrimidin-7-one [Example 103] |  | 5.61 | 0 | 0
11 | 32.9 | 588 | 0.056 | 1-methyl-5-{2-propoxy-5-[bis(2-nicotinoyloxyethyl)amidosulfonyl]phenyl}-3-n-propyl-1,6-dihydro-7H-pyrazolo[4,3-d]pyrimidin-7-one [Example 3] |  | 0.056 |  | 
12 |  |  |  | CCCOc1ccc(S(=O)(=O)N(CCO)CCN2CCOCC2)cc1-c1cc2c(CCC)nn(C)c2c(=O)[nH]1 [Example 95, 1-methyl-5-{2-propoxy-5-[[1-(2-hydroxyethyl)-1-(2-morpholin-1-yl)ethyl]amidosulfonyl]phenyl}-3-n-propyl-1,6-dihydro-7H-pyrazolo[4,3-d]pyrimidin-7-one] | 57.2 ± 10.1 |  |  | 

Row | Compound | IC50 [4] [nM] | PDE6 IC50/PDE5 IC50 [4] | IC50 ([2]; PDE5 in the PDE6 selectivity table) [nM] | ICP/BP [1] | IC50 ([2]; PDE5 from human platelets) [nM] | Number of death [3] | mortality rate [3] [%]
13 | CCCc1nn(C)c2c(=O)[nH]c(-c3cc(S(=O)(=O)N(CCOC(C)=O)CCOC(C)=O)ccc3OCC)nc12 [Example 4, 1-methyl-5-{2-ethoxy-5-[bis(2-acetoxyethyl)amidosulfonyl]phenyl}-3-n-propyl-1,6-dihydro-7H-pyrazolo[4,3-d]pyrimidin-7-one] | 276 | 82.1 |  |  | 3.37 |  | 
14 | CCCOc1ccc(S(=O)(=O)N(CCOC(C)=O)CCOC(C)=O)cc1-c1nc2c(CCC)nn(C)c2c(=O)[nH]1 [Example 1, 1-methyl-5-{2-propyloxy-5-[bis(2-acetoxyethyl)amidosulfonyl]phenyl}-3-n-propyl-1,6-dihydro-7H-pyrazolo[4,3-d]pyrimidin-7-one] | 16.8 | 210 |  |  | 0.08 |  | 
